This experiment deals with Purkinje cells in acute cerebellar slices from SCA2-58Q mouse. In words: Cerebellar slice loose-patch recordings of spontaneous PC activity in SCA2-58Q mice. It is filed as cell-based. The conditions noted are these: 10 μM; for effect on PC firing pattern: bursting SCA2-58Q PC; for Average firing frequency (FF) after exposure: 10-s fragment of one PC recording, before application 2o 157.2 Hz, 2q 134.3 Hz. As for the experimental part:
The ISI distribution before and after 2o application, obtained from 10-s fragments of the recording was also analyzed (FIG. 9C). […] The ISI distribution before and after 2q application, obtained from 10-s fragments of the recording was also analyzed (FIG. 10A).
Transgenic SCA2-58Q mice and their wild type (WT) littermates were used in these experiments. SCA2-58Q mice were kindly provided to us by Dr. Stefan Pulst (University of Utah) and were crossed to the FVB background strain. Hemizygous male SCA2-58Q mice were crossed with the WT female mice to generate mixed litters. The genotyping was done via PCR for ATXN2 transgene. The volume of one PCR sample was 25 μl. The PCR mix per one sample contained: 2.5 μl 10× buffer for Taq polymerase, 0.5 μl 10 mM dNTP, 1.5 μl 25 mM MgCl2, 0.125 μl 20 μM primers (forward and reverse), 0.25 μl Taq polymerase, 2 μl DNA, and 18 μl dH2O. For forward and reverse primer sequences, see e.g., Egorova et al., Cell Calcium, 2021 January; 93: 102319. The PCR product has 232 bp. Mice were housed in groups of two to six in one cage in the vivarium. The temperature was kept 22-24° C. including 12 daylight hours. […] All procedures were approved by the Bioethics Committee of the Peter the Great St. Petersburg Polytechnic University at St. Petersburg, Russia, and followed the principles of the European convention (Strasbourg, 1986) and the Declaration of International medical association about humane treatment of animals (Helsinki, 1996).
Recordings of spontaneous PC activity from WT and SCA2-58Q mice at 7-8 months of age were performed. Briefly, the mice were anesthetized with 2,000 mg/kg urethane and transcardially perfused with ice-cold aCSF containing 85 mM NaCl, 24 mM NaHCO3, 25 mM glucose, 2.5 mM KCl, 0.5 mM CaCl2, 4 mM MgCl2, 1 mM NaH2PO4, and 75 mM sucrose. Solutions were equilibrated with carbogen (95% O2/5% CO2). Next, the cerebellum was dissected and 300 μm thick sagittal slices were cut with a VT1200S vibratome (Leica). […] The external bath solution used for the recording was the same as the recovery aCSF, but also contained 100 μM picrotoxin (PTX) and 10 μM 6,7-dinitroquinoxaline-2,3-dione (DNQX), equilibrated with carbogen. All recordings were made within 5-6 hours after cerebellum was dissected. The recording chamber was heated to 35° C. using TC-324C automatic temperature controller (Warner Instruments). Loose-patch recordings were made to evaluate the spontaneous activity of cerebellar PCs. Briefly, 1-3 MΩ glass pipettes were filled with the internal solution containing 140 mM NaCl buffered with 10 mM HEPES pH 7.3 and held at 0 mV. A loose patch (<100 MΩ) configuration was established at the PC soma at the axon hillock area. Spontaneous action potential currents were recorded for 5-60 min from each cell using Axon Multiclamp 700B amplifier (Molecular Devices). The 10 min recordings were analyzed for tonic or burst firing. Cells were characterized as firing tonically if they fired repetitive nonhalting spike trains for 10 min. A cell was characterized as bursting if it had more than 5% of the interspike intervals that fell outside of 3 SD from the mean of all interspike intervals in that cell. The analysis of PC firing was performed using Clampfit 10.2 (Molecular Devices). Data was plotted as the instantaneous firing rate every 100 ms for the entire recording duration.

Each structure is given as a SMILES string. “Also recorded” adds a separate entry of the source.

For the compound `Cc1cc(Nc2cc(Cl)ccc2F)nc(-n2nc(C)cc2C)n1` [Compound 2q, N-(5-Chloro-2-fluorophenyl)-2-(3,5-dimethyl-1H-pyrazol-1-yl)-6-methylpyrimidin-4-amine], the “effect on PC firing frequency” value is “significantly decreased the firing frequency of the cell”; the “effect on regularity of PC activity” value is recorded as “improved the regularity of PC activity”; the “time after application until cell activity switched to the silent mode” value was found to be 8 min; the “effect on PC firing pattern” value is “converted bursting SCA2-58Q PC to tonic firing pattern; also recorded: normalize abnormal firing of Purkinje cells; also recorded: converts bursting patterns into tonic activity of PC and then into a silent mode”. For the same compound, the “Average firing frequency (FF) after exposure” value is listed as 55.9 Hz.

For `Cc1cc(Nc2ccc(F)c(Cl)c2)nc(-n2nc(C)cc2C)n1` [Compound 2o, N-(3-Chloro-4-fluorophenyl)-2-(3,5-dimethyl-1H-pyrazol-1-yl)-6-methyl-pyrimidin-4-amine], the “effect on PC firing frequency” value is “significantly decreased the firing frequency of the cell”, the “effect on regularity of PC activity” value is given as “improved the regularity of PC activity”, the “effect on PC firing pattern” value is on record as “converted bursting SCA2-58Q PC to tonic firing pattern; also recorded: normalize abnormal firing of Purkinje cells; also recorded: converts bursting patterns into tonic activity of PC” and the “Average firing frequency (FF) after exposure” value came out at 84.6 Hz.

(Values after patent publication US12312333B2, “SK channel positive allosteric modulators” (Chapman University, priority 2021, dated 2025).)
